Experimental data taken from patent US20240376144A9, “NEUROACTIVE STEROIDS S[…] POSITION 10 WITH A CYCLIC GROUP FOR USE IN THE TREATMENT OF CNS DISORDERS” (Sage Therapeutics, Inc., priority 2018, published 2024).

The compounds below were run against GABAA receptor ([35S]-TBPS binding, rat brain cortical membranes) (assay: Steroid inhibition of [35S]-TBPS binding). Settings: 3 nM [35S]-TBPS, in the presence of 5 mM GABA.
Protocol: [^35S]-t-Butylbicyclophosphorothionate (TBPS) binding assays using rat brain cortical membranes in the presence of 5 mM GABA has been described (Gee et al., J. Pharmacol. Exp. Ther. 1987, 241, 346-353; Hawkinson et al., Mol. Pharmacol. 1994, 46, 977-985; Lewin, A. H et al., Mol. Pharmacol. 1989, 35, 189-194).
Briefly, cortices are rapidly removed following decapitation of carbon dioxide-anesthetized Sprague-Dawley rats (200-250 g). The cortices are homogenized in 10 volumes of ice-cold 0.32 M sucrose using a glass/teflon homogenizer and centrifuged at 1500×g for 10 min at 4° C. The resultant supernatants are centrifuged at 10,000×g for 20 min at 4° C. to obtain the P2 pellets. The P2 pellets are resuspended in 200 mM NaCl/50 mM Na—K phosphate pH 7.4 buffer and centrifuged at 10,000×g for 10 min at 4° C. This washing procedure is repeated twice and the pellets are resuspended in 10 volumes of buffer. Aliquots ([…]) of the membrane suspensions are incubated with 3 nM [^35S]-TBPS and […] aliquots of test drug dissolved in dimethyl sulfoxide (DMSO) (final 0.5%) in the presence of 5 mM GABA. The incubation is brought to a final volume of 1.0 mL with buffer. Nonspecific binding is determined in the presence of […] and ranged from 15 to 25%. Following a 90 min incubation at room temp, the assays are terminated by filtration through glass fiber filters (Schleicher and Schuell No. 32) using a cell harvester (Brandel) and rinsed three times with ice-cold buffer. Filter bound radioactivity is measured by liquid scintillation spectrometry. Non-linear curve fitting of the overall data for each drug averaged for each concentration is done using Prism (GraphPad). […] The concentration of test compound producing 50% inhibition (IC50) of specific binding and the maximal extent of inhibition (Imax) are determined for the individual experiments with the same model used for the overall data and then the means±SEM.s of the individual experiments are calculated.
Various compounds are or can be screened to determine their potential as modulators of [^35S]-TBPS binding in vitro. These assays are or can be performed in accordance with the above
In Table 2 below, A indicates a TBPS IC50 (μM)<0.1 μM, B indicates a TBPS IC50 (μM) of 0.1 μM to <1.0 μM, C indicates a TBPS IC50 (μM) of 1 μM to <10.0 μM, D means≥10 μM.

SMILES	IC50 [nM]
CCOC[C@@]1(O)CC[C@@]2(C3CC3)[C@H](CC[C@H]3[C@@H]4CC[C@H](C(C)=O)[C@@]4(C)CC[C@@H]32)C1 [Compound 4.12, 1-((3R,5R,8S,9S,10R,13S,14S,17S)-10-cyclopropyl-3-(ethoxymethyl)-3-hydroxy-13-methylhexadecahydro-1H-cyclopenta[a]phenanthren-17-yl)ethan-1-one]	< 100
CCOC[C@@]1(O)CC[C@@]2(C3CC3)[C@H](CC[C@H]3[C@@H]4CC[C@H](C(=O)Cn5cc(C#N)cn5)[C@@]4(C)CC[C@@H]32)C1 [Compound 5.2, 1-(2-((3R,5R,8S,9S,10R,13S,14S,17S)-10-cyclopropyl-3-(ethoxymethyl)-3-hydroxy-13-methylhexadecahydro-1H-cyclopenta[a]phenanthren-17-yl)-2-oxoethyl)-1H-pyrazole-4-carbonitrile]	< 100
COC[C@@]1(O)CC[C@@]2(C3CC3)[C@H](CC[C@H]3[C@@H]4CC[C@H](C(=O)Cn5cc(C#N)cn5)[C@@]4(C)CC[C@@H]32)C1 [Compound 8.2b, 1-(2-((3R,5R,8S,9S,10R,13S,14S,17S)-10-cyclopropyl-3-hydroxy-3-(methoxymethyl)-13-methylhexadecahydro-1H-cyclopenta[a]phenanthren-17-yl)-2-oxoethyl)-1H-pyrazole-4-carbonitrile]	< 100
COC[C@@]1(O)CC[C@@]2(C3CC3)[C@H](CC[C@H]3[C@@H]4CC[C@H](C(C)=O)[C@@]4(C)CC[C@@H]32)C1 [Compound 7.4, 1-((3R,5R,8S,9S,10R,13S,14S,17S)-10-cyclopropyl-3-hydroxy-3-(methoxymethyl)-13-methylhexadecahydro-1H-cyclopenta[a]phenanthren-17-yl)ethan-1-one]	< 100
CCOC[C@@]1(O)CC[C@@]2(C3CC3)[C@H](CC[C@H]3[C@@H]4CC[C@H](C(=O)Cn5ccc(C#N)n5)[C@@]4(C)CC[C@@H]32)C1 [Compound 6, 1-(2-((3R,5R,8S,9S,10R,13S,14S,17S)-10-cyclopropyl-3-(ethoxymethyl)-3-hydroxy-13-methylhexadecahydro-1H-cyclopenta[a]phenanthren-17-yl)-2-oxoethyl)-1H-pyrazole-3-carbonitrile]	< 100
C[C@@]1(O)CC[C@@]2(C3CC3)[C@H](CC[C@H]3[C@@H]4CC[C@H](C(=O)Cn5cc(C#N)cn5)[C@@]4(C)CC[C@@H]32)C1 [Compound A11, 1-(2-((3R,5R,8S,9S,10R,13S,14S,17S)-10-cyclopropyl-3-hydroxy-3,13-dimethylhexadecahydro-1H-cyclopenta[a]phenanthren-17-yl)-2-oxoethyl)-1H-pyrazole-4-carbonitrile]	< 100
CC(=O)[C@H]1CC[C@H]2[C@@H]3CC[C@@H]4C[C@](C)(O)CC[C@]4(C4CC4)[C@H]3CC[C@]12C [Compound A9, 1-((3R,5R,8S,9S,10R,13S,14S,17S)-10-cyclopropyl-3-hydroxy-3,13-dimethylhexadecahydro-1H-cyclopenta[a]phenanthren-17-yl)ethan-1-one]	< 100
